Experiments:
[1] = test system: TRPV1 (mouse DRG neurons); experiment: Ca2+ imaging, CAP-induced responses in mouse DRG neurons; type: cell-based; settings: 100 nM CAP, Fura-2 340/380 ratio
Protocol: Cells were mechanically dissociated by gentle pipetting and placed on glass coverslips coated with poly-D-lysine.
At room temperature, Ca^2+ imaging was conducted in mouse DRG, HEK293T, and hTRPV1-expressing CHO K1 cells. […] The cells were then rinsed three times with the medium and incubated for 30 min, following which they were placed on the stage of an inverted microscope (BX51W1; Olympus, Tokyo, Japan) and continuously superfused at a flow speed of 1 mL/min with a bath solution containing 140 mM NaCl, 5 mM KCl, 1 mM CaCl2, 2 mM MgCl2, 10 mM HEPES, and 10 mM glucose, adjusted to pH 7.4 with NaOH. […] The fluorescence 340/380 ratio was measured using digital video microfluorometry with an intensified camera (OptiMOS; QImaging, Surrey, Canada) coupled to the microscope. Data were analyzed using SlideBook 6 (Intelligent Imaging Innovations, Denver, CO). At the end of the experiment, cells were identified based on their response to high concentrations of KCl.

rat TRPV1 = experiment: Ca2+ imaging, CAP-induced responses in HEK293T cells transfected with rat TRPV1; type: cell-based; settings: no GLP-1R expression, 100 nM peptide, 100 nM CAP, vs control CAP
Protocol: DRG cells were then grown in a neurobasal-defined medium supplemented with 10% fetal bovine serum (FBS; Gibco, Waltham, MA), 2% B27 supplement (Invitrogen, Carlsbad, CA), and 1% penicillin/streptomycin for 24 h before experiments. Human TRPV1 (hTRPV1)-expressing CHO K1 cells were cultured using Dulbecco’s modified Eagle’s medium (DMEM) containing 10% FBS, 1% penicillin/streptomycin, and 800 μg/mL geneticin in an incubator with 5% CO2 at 37°C. HEK293 and HEK293T cells were also cultured in the same DMEM but without geneticin. Rat TRPV1 plasmids were labeled with a green fluorescent protein to indicate subsequent calcium imaging. cDNA constructs of rat TRPV1 were transiently transfected into cells using Lipofectamine 2000 (Invitrogen). Ca^2+ imaging was performed one day after transient transfection.
At room temperature, Ca^2+ imaging was conducted in mouse DRG, HEK293T, and hTRPV1-expressing CHO K1 cells. Cells on poly-D-lysine-coated coverslips were loaded with 2 μM Fura-2 AM (Thermo Fisher Scientific, Waltham, MA) at 37°C for 40 min in DMEM. The cells were then rinsed three times with the medium and incubated for 30 min, following which they were placed on the stage of an inverted microscope (BX51W1; Olympus, Tokyo, Japan) and continuously superfused at a flow speed of 1 mL/min with a bath solution containing 140 mM NaCl, 5 mM KCl, 1 mM CaCl2, 2 mM MgCl2, 10 mM HEPES, and 10 mM glucose, adjusted to pH 7.4 with NaOH. Using illumination with a 175-W xenon arc lamp, excitation wavelengths (340/380 nm) were selected using a Lambda DG-4 monochromator wavelength changer (Shutter Instrument, Novato, CA). The fluorescence 340/380 ratio was measured using digital video microfluorometry with an intensified camera (OptiMOS; QImaging, Surrey, Canada) coupled to the microscope. Data were analyzed using SlideBook 6 (Intelligent Imaging Innovations, Denver, CO). At the end of the experiment, cells were identified based on their response to high concentrations of KCl.

[2] = acute intraperitoneal glucose tolerance test (IPGTT), blood glucose; type: in vivo, mouse (wild-type); settings: 10 μg/kg i.p. 15 min before glucose 2 g/kg i.p.
Protocol: Licking time was recorded for 5 min after CAP injection in each group. Mechanical allodynia and thermal hyperalgesia were evaluated in separate experiments in a time-dependent manner. Mechanical allodynia was assessed using von Frey filaments (NC12775–99; North Coast Medical, CA). The 50% PWT was calculated using the up-down method. Thermal hyperalgesia was assessed by recording PWL using the Hargreaves radiant heat apparatus (IITC Life Sciences, Woodland Hills, CA). A cutoff value of 20 s was used to prevent tissue damage. […] The acute IPGTT was performed in mice aged 8 weeks. Baseline blood glucose levels were measured and mice were intraperitoneally injected with 200 μL of vehicle, exendin 20–29 (10 μg/kg), and exendin-4 (10 μg/kg) in wild-type mice (n = 6). After 15 min, the mice were challenged with glucose (2.0 g/kg body weight). Blood glucose levels were measured using an Accu-Chek Performa glucometer (Roche, Mannheim, Germany).

[3] = 10 μg/kg; cited from earlier work
Protocol: To determine the potential effects of exendin 20–29 on GLP-1R and glucose regulation, we performed an acute intraperitoneal glucose tolerance test (IPGTT) in 8-week-old mice. […] After 15 min of exendin 20–29 or exendin-4 administration, a glucose solution (2 g/kg) was intraperitoneally injected (at 0 min; Fig. 8f).

**Q.** What does the source list for exendin-4?
**A.** CAP-induced Ca2+ responses, significance ([1]; vs control CAP): ****p<.0001, compared with control CAP; reduction of CAP-induced Ca2+ responses ([1]; 100 nM peptide pretreatment, room temperature): 72.2%; CAP-induced TRPV1 calcium responses (rat TRPV1): ****p <.0001, compared with each control CAP; blood glucose level in IPGTT [2]: significantly lowered the blood glucose level from 15 to 120 min; blood glucose levels [3]: lowers blood glucose levels
